“Also recorded” adds a separate entry of the source. Counter-ions that a name gives are not always drawn.
Key:
mice [1] = assay: Anti-convulsant activity (electric shock) (mice); assay type: in vivo; conditions: Mus musculus, po, read-out: Electric shock, 50% effective dose
From the text: 4. Anti-convulsant activity (electric shock) (mice)
The test consists in determining the intensity of the electric current required to produce a fatal shock in a batch of test animals.
Certain preventively administered compounds effectively protect a certain percentage of animals subjected to an electric current of an intensity which is fatal to untreated animals.

Acute toxicity (M) LD 50 = conditions: in vivo, mouse
mice [2] = assay: Traction test (mice), myorelaxant activity; assay type: in vivo; conditions: Mus musculus, po, read-out: Traction, 50% effective dose
From the text: This consists in observing when the treated animals are capable of retrieving a rod grasped by the front paws only. Inability to carry this out was interpreted as a sign of myorelaxant activity.

cat = assay: Morphine crisis (C); assay type: in vivo; conditions: Felis catus, SC, read-out: Morphine crisis, 50% effective dose
From the text: In the cat, morphine produces a specific state of excitation with hallucinations which can be attenuated or suppressed by certain psycholeptic drugs.

mice [3] = assay: Balance test: rotating rod (mice) (Equilibration); assay type: in vivo; conditions: Mus musculus, po, read-out: Equilibration, 50% effective dose
From the text: 2. Balance test: rotating rod (mice)
This test consists in observing whether the treated animals are capable of maintaining their balance on a horizontal rod kept in rotation.
Numerous neuroleptic compounds or tranquilizers disturb the equilibration reflex.

mice [4] = assay: Exploration test (mice); assay type: in vivo; conditions: Mus musculus, read-out: Exploration, 50% effective dose
Procedure: 5. Exploration test (mice)
This extremely simple test consists in placing a mouse at the center of a floor pierced with holes and in noting how many holes the mouse explores in 5 minutes. This test is carried out in a room in which complete silence is observed and which contains no person except the experimenter who is seated and still. It appeals to the curiosity of the animals. The doses of the compounds employed are, however, very small and considerably less than those required to impair movement. This simple test makes it possible to observe whether the compounds assayed produce a more or less pronounced lack of interest in the environment and it gives information which is interesting from the clinical point of view with regard to the treatment of anxiety and restlessness.

rat [5] = assay: Benzedrine provoked motor activity (R); assay type: in vivo; conditions: PO, read-out: Benzedrine provoked motor activity, 50% effective dose
From the text: (§1) 6. Spontaneous motor activity in the rat and mouse and provoked motor activity
(§2) The effect of drugs on voluntary movements of animals can be studied statistically by methods, the details of which will not be discussed here. The mouse, which is an extremely lively animal and moves about a great deal, is particularly suitable for this type of experiment.
(§3) Moreover, this spontaneous mobility can be exacerbated by preventive administration to the animals of certain substances such as benzedrine, mescaline and ritaline.
(§4) The experimental results obtained by these methods give valuable information for clinical purposes with regard to the treatment of ambulatory psychomotor crises.

mice [6] = assay: Anti-convulsant activity (anti-pentetrazole) (mice); assay type: in vivo; conditions: mouse, PO; pentetrazole 125 mg./kg. IP; read-out: Anti-pentetrazole, 50% effective dose
Procedure: 3. Anti-convulsant activity (anti-pentetrazole) (mice)
Pentetrazole, injected intraperitoneally in a dose of 125 mg./kg. produces fatal convulsions in 100% of the animals.
Certain compounds exert a protective action preventing convulsions and permitting survival.

male rat = assay: Combativeness (rat); assay type: in vivo; conditions: for ED50: rat, PO, read-out: Combativeness, 50% effective dose
From the text: It is possible to make a male rat aggressive towards another male rat enclosed in the same cage by passing an electric current of more or less high voltage through the floor of the cage.
This test, like the preceding one, can obviously give information of clinical value for the treatment of aggression diseases.

[7] = Reaction (pH) of aqueous solution; assay type: physicochemical
mouse [8] = assay: Spontaneous motor activity in the mouse; assay type: in vivo; conditions: Mus musculus, po, read-out: Spontaneous motor activity, 50% effective dose
From the text: as §1, §2

mouse [9] = assay: Benzedrine provoked motor activity (M); assay type: in vivo; conditions: PO, read-out: Benzedrine provoked motor activity, 50% effective dose
From the text: as §1, §2, §3, §4

rat [10] = assay: Spontaneous motor activity in the rat; assay type: in vivo; conditions: Rattus norvegicus, po, read-out: Spontaneous motor activity, 50% effective dose
From the text: as §1, §2

cats = assay: Aggressiveness (cat/mouse); assay type: in vivo; conditions: Felis catus, SC, read-out: Aggressiveness, 50% effective dose
From the text: 9. Aggressiveness (cat/mouse)
In general, 75 to 80% of cats are aggressive when confronted with white mice. Psycholeptics and tranquilizers may make the cat indifferent and sometimes even amiable to the mouse. Similarly, in the case of cats that are furious and aggressive in relation to humans, diminution or suppression of the instinctive fear and establishment of a climate of confidence are observed.

mouse [11] = assay: Antistrychnine activity; assay type: in vivo; conditions: po, read-out: Anti-strychnine, 50% effective dose
From the text: 7. Antistrychnine activity

mouse [12] = assay: Morphine excitation (M); assay type: in vivo; conditions: PO, read-out: Morphine excitation, 50% effective dose
From the text: In the mouse, the action of morphine is different but also manifested by marked central excitation.

mouse [13] = assay: Potentiation of narcosis (M); assay type: in vivo; conditions: PO, read-out: Narcotic potentiation, 50% effective dose
From the text: 12. Potentiation of narcosis
Most psycholeptics are hypnotics in large doses, but many of them can, in small doses, without themselves producing any hypnosis, either prolong the time of sleep obtained with a true hypnotic (for example a barbiturate) or appreciably lower the dose of barbiturate required to obtain sleep.

central nervous system = assay: Pharmacodynamic / central nervous system tests taken together; assay type: in vivo
From the text: A certain number of the compounds described in the present application have been studied with regard to their action on the central nervous system, as psycholeptics, myorrelaxants and tranquilizers. In addition, the acute toxicity has been determined for a number of these compounds.
It has thereby been possible to make quantitative comparisons of the activity of the different compounds for the different tests employed.

Structure (SMILES)	ED50 (mice [1]) [mg/kg]	ED50 (mice [2]) [mg/kg]	ED50 (mice [3]) [mg/kg]	ED50 (mice [4]; po) [mg/kg]	ED50 (mice [6]) [mg/kg]	Reaction / pH of aqueous solution [7]	Solubility in water (Solubility)	ED50 (mouse [8]) [mg/kg]	also measured
CNC1=Nc2ccc(Cl)cc2C(c2ccccc2)=[N+]([O-])C1 [Chlordiazepoxide, reference compound]	17	3	13	20	5	–	–	–	LD50 (Acute toxicity (M) LD 50; IP): 80 mg/kg; LD50 (Acute toxicity (M) LD 50; PO): 200 mg/kg; ED50 (cat): 100 mg/kg; ED50 (rat [5]): > 100 mg/kg; ED50 (male rat): 100 mg/kg
O=C(O)C1N=C(c2ccccc2)c2ccccc2NC1=O.[K+].[K+].[OH-].[OH-] (stereo not drawn) [4337 CB, 2,3-Dihydro-2-oxo-5-phenyl-1H-benzo[f]-1,4-diazepine-3-carboxylic acid, monopotassium salt, monopotassium hydroxide]	> 10	5	> 10	> 10	> 10	strongly alkaline in reaction	completely soluble in water	–	–
CN1C(=O)CN=C(c2ccccc2)c2cc(Cl)ccc21 [Diazepame, 7-Chloro-1-methyl-5-phenyl-2-oxo-2,3-dihydro-1H-benzo[f]-1,4-diazepine, reference compound]	5	1.6	4.4	6	1.7	–	–	5	ED50 (mouse [9]): > 20 mg/kg; ED50 (rat [10]): 25 mg/kg; ED50 (cats): 25 mg/kg; ED50 (cat): 25 mg/kg; ED50 (rat [5]): 100 mg/kg; ED50 (mouse [11]): > 50 mg/kg; ED50 (mouse [12]): 25 mg/kg; ED50 (male rat): 25 mg/kg; ED50 (mouse [13]): 2.5 mg/kg
CCOC(=O)C1N=C(c2ccccc2)c2cc(Cl)ccc2NC1=O (stereo not drawn) [4279 CB, 7-Chloro-3-carbethoxy-5-phenyl-2-oxo-2,3-dihydro-1H-benzo[f]-1,4-diazepine]	25	8	50	25	10	–	–	100	ED50 (rat [10]): 100 mg/kg; ED50 (rat [5]): > 100 mg/kg
Cc1ccc2c(c1)C(c1ccccc1)=NC(C(=O)O)C(=O)N2.[K+].[K+].[OH-].[OH-] (stereo not drawn) [4339 CB, 7-Methyl-2,3-dihydro-2-oxo-5-phenyl-1H-benzo[f]-1,4-diazepine-3-carboxylic acid, monopotassium salt, monopotassium hydroxide]	> 10	> 10	> 10	–	> 10	–	completely soluble in water	10	–
CN1C(=O)C(C(=O)O)N=C(c2ccccc2)c2cc(Cl)ccc21.[K+].[K+].[OH-].[OH-] (stereo not drawn) [4350 CB, 7-Chloro-1-methyl-2,3-dihydro-2-oxo-5-phenyl-1H-benzo[f]-1,4-diazepine-3-carboxylic acid, monopotassium salt, monopotassium hydroxide]	20	5	> 10	10	7.5	strongly alkaline in reaction	very soluble in water; also recorded: completely soluble in water	> 20	–
O=C(O)C1N=C(c2ccccc2)c2cc([N+](=O)[O-])ccc2NC1=O (stereo not drawn) [4336 CB, 3-[7-nitro-5-phenyl-2-oxo-2,3-dihydro-1H-benzo[f]-1,4-diazepine]-carboxylicacid, potassium salt]	3	0.28	1.5	6	0.31	practically neutral solution	dissolves in water	5	ED50 (rat [10]): 50 mg/kg; LD50 (Acute toxicity (M) LD 50; PO): 800 mg/kg; ED50 (cats): 25 mg/kg; ED50 (cat): 25 mg/kg; ED50 (mouse [11]): 25 mg/kg; ED50 (male rat): 10 mg/kg; Effect in diminishing aggressiveness (male rat; test for combativeness): marked effect in diminishing aggressiveness; Activity in different tests, especially as myorelaxants and anticonvulsants (central nervous system; different tests of Table VI): extremely active in different tests; Effect on the faculties of displacement (central nervous system; in vivo): less effect on the faculties of displacement
Cc1ccc2c(c1)C(c1ccccc1)=NC(C(=O)O)C(=O)N2 (stereo not drawn) [4373 CB, 3-[7-methyl-5-phenyl-2-oxo-2,3-dihydro-1H-benzo[f]-1,4-diazepine]-carboxylic acid, potassium salt]	–	–	–	–	–	–	completely soluble in water	–	–
Nc1ccc2c(c1)C(c1ccccc1)=NC(C(=O)O)C(=O)N2.[K+].[K+].[OH-].[OH-] (stereo not drawn) [4371 CB, 7-Amino-2,3-dihydro-2-oxo-5-phenyl-1H-benzo[f]-1,4-diazepine-3-carboxylic acid, monopotassium salt, monopotassium hydroxide]	–	–	–	–	–	strongly alkaline reaction	completely soluble in water	–	–
O=C(O)C1N=C(c2ccccc2)c2ccccc2NC1=O (stereo not drawn) [4338 CB, 3-[5-Phenyl-2-oxo-2,3-dihydro-1H-benzo[f]-1,4-diazepine]-carboxylic acid, potassium salt]	> 10	5	> 10	–	> 10	substantially neutral reaction	dissolves in water	10	ED50 (mice [4]; route not given): > 10 mg/kg
NC(=O)C(N=C(c1ccccc1)c1cc(Cl)ccc1N)C(=O)O (stereo not drawn) [4349 CB, Potassium salt of 4-phenyl-4-(2-amino-5-chlorophenyl)-2-carbamoyl-3-aza-3-butenoic acid]	> 10	10	> 10	10	> 10	–	completely soluble in water	10	–
O=C(O)C1N=C(c2ccccc2)c2cc(Cl)ccc2NC1=O (stereo not drawn) [4372 CB, 7-Chloro-2,3-dihydro-2-oxo-5-phenyl-1H-benzo[f]-1,4-diazepine-3-carboxylic acid, calcium salt]	–	–	–	–	–	–	sparingly soluble in water	–	–
CCN(CC)CCNC(=O)C1N=C(c2ccccc2)c2cc(Cl)ccc2NC1=O (stereo not drawn) [4369 CB, 7-Chloro-3-(2-diethylamino-ethylaminocarbonyl)-5-phenyl-2-oxo-2,3-dihydro-1H-benzo[f]-1,4-diazepine]	> 20	> 25	> 50	> 20	> 50	–	–	> 10	–
